According to patent US11273153B2, “MAPK inhibitors” (EverBrilliant Pharma Pty Ltd, priority 2014, dated 2022):
Values joined by “and” are separate entries in the source; they are usually repeats but may differ in a detail not shown here. Equal values may be shown once. Read-outs that look alike come from different tables or passages of the source. Each block holds one molecule with its values, some of them ahead of it.

How the values were obtained:
[1] = In vitro metabolic stability, human liver microsomes; type: in vitro ADME; settings: for half-life: NADPH-dependent, read-out: Apparent Degradation half-life; for microsomal CLint: read-out: In vitro CLint (μL/min/mg protein)
Protocol: (§1) The metabolic stability of compounds 4.1 and 4.5 was assayed in an in vitro assay which employed liver microsomes. Liver microsomes are valuable models for the determination of hepatic clearance because they contain a number of drug metabolising enzymes, such as the CYP450 enzymes. An in vitro metabolic stability study was conducted using human, rat and mouse liver microsomes as a prediction of the in vivo metabolic clearance. […] From the results, the rates of apparent compound degradation in human, rat and mouse liver microsomes were in agreement with the moderate to high microsome-predicted extraction ratios (EH) for both compounds 4.1 and 4.5.

[2] = In vitro metabolic stability, rat liver microsomes; type: in vitro ADME; settings: for half-life: NADPH-dependent, read-out: Apparent Degradation half-life; for microsomal CLint: read-out: In vitro CLint (μL/min/mg protein)
Protocol: as §1

[3] = target: active phosphorylated p38α MAPK (Homo sapiens (Human), UniProt Q16539); experiment: Fluorescence polarisation (FP) binding assay, active enzyme
Protocol: (§2) A number of compounds were also assessed for the inhibition of p38α MAPK activity (www.kinase-screen.mrc.ac.uk) in which a radioactive (^33P-labelled ATP) filter binding assay was used to directly measure phosphate incorporation. Table 1 summarises the binding affinities of the synthesised compounds to both forms of the enzyme as well as the inhibitory activities against p38α MAPK. By way of enabling a comparison with a non-thiophene compound the biological testing was also carried out for known inhibitor RWJ67657, shown in table 1.
(§3) FP signals were measured with a PHERAstar microplate reader (BMG Labtech) using black, low-binding half-area 96 well plates (Corning). Each binding data point was carried out in duplicate or triplicate. Data were recorded in millipolarisation (mP) units and measured at an excitation wavelength of 485 nm and an emission wavelength of 520 nm. Tris(hydroxymethyl)aminomethane (Tris) assay buffer was used in all binding experiments and consisted of 10 mM Tris, […] potassium chloride, and 3.5 mM 3-((3-cholamidopropyl)dimethylammonium)-1-propanesulfonate (Chaps) at pH 8.0.
(§4) Test compounds were prepared from dimethylsulfoxide stocks (10 mM). […] Plates were incubated at room temperature for 1 hour and FP signals were recorded. For binding experiments to active p38α MAPK, the FP signals were recorded after 2 hours incubation at room temperature. Data is represented as mean±SEM from two to three independent experiments.

[4] = tested on: IL-6 gene expression in monocytic (THP-1) cells; experiment: LPS-induced IL-6 gene expression in THP-1 cells; type: cell-based; settings: LPS-stimulated THP-1 cells
Protocol: Certain of the compounds were tested in a cellular assay for suppression of TNF-α and IL-6 gene expression in monocytic (THP-1) cells and the assay results are depicted in FIGS. 2 and 3. A published method was used whereby treating THP-1 cells with LPS induces TNF-α and IL-6 gene expression.

[5] = tested on: neonatal rat cardiac myocytes (NCM); experiment: Neonatal rat cardiac myocyte hypertrophy (3H-leucine incorporation); type: cell-based
Protocol: Neonatal rat cardiac myocyte (NCM) hypertrophy was determined by ^3H-leucine incorporation following a published protocol on the above synthesised compounds using either Angiotensin II (AngII, 100 nM) or TNF-α (10 ng/mL) as the stimulus. ^3H levels were counted in scintillation fluid on a beta counter to determine levels of ^3H-leucine incorporation.

[6] = target: inactive non-phosphorylated p38α MAPK (Homo sapiens (Human), UniProt Q16539); experiment: Fluorescence polarisation (FP) binding assay, inactive enzyme
Protocol: as §2, §3, §4

[7] = tested on: neonatal rat cardiac fibroblasts (NCF); experiment: Neonatal rat cardiac fibroblast collagen synthesis (3H-proline incorporation); type: cell-based; settings: AngII 100 nM stimulus
Protocol: The effect of the compounds on neonatal rat cardiac fibroblasts (NCF) collagen synthesis was determined by measuring ^3H-proline incorporation following a published protocol using AngII (100 nM) as the stimulus. ^3H-proline incorporation was determined in the same way as the cardiac myocyte hypertrophy assay described above.

[8] = In vitro metabolic stability, mouse liver microsomes; type: in vitro ADME; settings: for half-life: NADPH-dependent, read-out: Apparent Degradation half-life; for microsomal CLint: read-out: In vitro CLint (μL/min/mg protein)
Protocol: as §1

[9] = tested on: neonatal rat cardiac fibroblasts (NCF); experiment: NCF cell viability (MTT assay); type: cell-based
Protocol: Measurement of NCF cell viability was carried out using a published method with the 3-(4,5-dimethylthiazol-2-yl)-2,5-diphenyltetraxolium bromide (MTT) assay.

p38α MAPK = p38α MAPK (Homo sapiens (Human), UniProt Q16539); experiment: Radioactive (33P-labelled ATP) filter binding assay of p38α MAPK activity; type: biochemical
Protocol: as §2

[10] = Acute toxicity study in rats; type: in vivo, male Sprague-Dawley (SD) rats; settings: two weeks
Protocol: (§5) An acute toxicity study of compound 4.5 was carried out. In this toxicity study, four male Sprague-Dawley (SD) rats received 150 mg/kg of compound 4.5 twice daily by oral gavage over a period of two weeks. The control group consisting of four male SD rats received 1% carboxymethylcellulose (CMC) in water. Blood samples were collected for analysis at 1 and 12 hours after the first dose and at the 7 and 14 day troughs. The rats were then sacrificed and organs collected for analysis. Individual body weights were measured at day −1, 2, 4, 7, 10 and 14. FIG. 7 indicates the blood results from an acute toxicity study for 4.5.
(§6) The full blood, haemoglobin, haemocrit, red cell count, mean corpuscular haemoglobin, mean corpuscular volume, red cell distribution width, mean corpuscular haemoglobin concentration and liver function were all assessed. […] The CDCO analysed blood samples using HPLC-MS to determine the concentrations of compound 4.5 in rat plasma at different time points (Table 3).

[11] = Plasma concentrations in the acute toxicity study (HPLC-MS); type: in vivo, rat; settings: for Concentration in rat plasma: 150 mg/kg twice daily oral gavage, individual rats 1-4, rat 2 atypical and excluded
Protocol: as §5, §6

[12] = 150 mg/kg twice daily oral gavage

Chain of active phosphorylated p38α MAPK (Q16539 whole entry): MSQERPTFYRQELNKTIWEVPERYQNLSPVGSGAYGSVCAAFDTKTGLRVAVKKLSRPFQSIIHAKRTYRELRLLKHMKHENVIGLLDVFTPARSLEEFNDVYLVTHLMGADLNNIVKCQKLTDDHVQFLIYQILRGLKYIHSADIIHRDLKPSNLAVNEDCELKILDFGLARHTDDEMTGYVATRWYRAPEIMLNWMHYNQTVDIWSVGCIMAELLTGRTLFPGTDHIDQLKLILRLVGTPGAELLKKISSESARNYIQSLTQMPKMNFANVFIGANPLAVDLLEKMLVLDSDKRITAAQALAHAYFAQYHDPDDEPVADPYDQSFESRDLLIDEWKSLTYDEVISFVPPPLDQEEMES
Chain of inactive non-phosphorylated p38α MAPK (Q16539 whole entry): as above
Chain of p38α MAPK (Q16539 whole entry): as above

Microsome predicted EH [1]: 0.92 | half-life [1]: 8 min | microsomal CLint [1]: 219 µL/min/mg | Microsome predicted EH [2]: ~0.91 | half-life [2]: ~5 min | microsomal CLint [2]: ~319 µL/min/mg | Ki ([3]; Table 1, read-out: Ki (μM, mean ± SEM) active p38α): 0.6 ± 0.1 µM | Ki ([3]; Table 6, read-out: Ki ± SEM (μM) to active p38α): 0.6 ± 0.1 µM | Ki ([6]; Table 1, read-out: Ki (μM, mean ± SEM) inactive p38α): 2.3 ± 0.2 µM | Ki ([6]; Table 6, read-out: Ki ± SEM (μM) to inactive p38α): 2.3 ± 0.2 µM | Microsome predicted EH [8]: ~0.94 | half-life [8]: ~5 min | microsomal CLint [8]: ~342 µL/min/mg | IC50 (p38α MAPK; Table 1, average of two experiments, read-out: IC50 (μM, mean)): 0.18 µM | IC50 (p38α MAPK; Table 6, read-out: IC50 (mean)): 0.18 µM
Structure (SMILES): OCCC#Cc1sc(-c2ccc(F)cc2)c(-c2ccncc2)c1CCCc1ccccc1 [Compound 4.1, 4-(5-(4-Fluorophenyl)-3-(3-phenylpropyl)-4-(pyridin-4-yl)thiophen-2-yl)but-3-yn-1-ol]
inhibition of LPS-induced IL-6 gene expression [4]: strong inhibition | suppression of AngII-induced NCM hypertrophy ([5]; AngII 100 nM stimulus): suppression of NCM hypertrophy | suppression of TNF-α-induced NCM hypertrophy ([5]; TNF-α 10 ng/mL stimulus): suppression of NCM hypertrophy | inhibition of AngII-stimulated NCF collagen synthesis [7]: did not suppress AngII-induced NCF collagen synthesis at 1 μM concentration | NCF cell viability ([9]; 10 μM concentration): no affect on NCF cell viability

Structure (SMILES): OCCC#Cc1cc(-c2ccncc2)c(-c2ccc(F)cc2)s1 [Compound 4.5, 4-(5-(4-Fluorophenyl)-4-(pyridin-4-yl)thiophen-2-yl)but-3-yn-1-ol]
Microsome predicted EH [1]: 0.58 | half-life [1]: 71 min | microsomal CLint [1]: 24 µL/min/mg | Microsome predicted EH [2]: 0.78 | half-life [2]: 16 min | microsomal CLint [2]: 110 µL/min/mg | Microsome predicted EH [8]: 0.89 | half-life [8]: 9 min | microsomal CLint [8]: 184 µL/min/mg | average body weight compared to vehicle group [10, 12]: no difference in the average body weight compared to the vehicle group | full blood, haemoglobin, haemocrit, red cell parameters and liver function, treated vs vehicle [10, 12]: No differences were observed between treated and vehicle groups | liver function [10, 12]: no changes to liverfunction | mass of the spleen [10, 12]: loss in the mass of the spleen | weights of the kidneys, heart and liver [10, 12]: the same as the vehicle group | tolerability in rats ([10]; 300 mg/kg/day): well tolerated | Concentration in rat plasma ([11]; 1 hour post first dose): 1357 nM and 0.9 nM and 325 nM and 327 nM | Concentration in rat plasma ([11]; 12 hours post first dose): 8 nM and 7 nM and 147 nM and 5 nM | Concentration in rat plasma ([11]; 7 day trough): 5 nM and 424 nM and 58 nM and 6 nM | Concentration in rat plasma ([11]; 14 day trough): 7 nM and 105 nM and 32 nM and 14 nM | peak plasma levels relative to the enzyme IC50 value ([11]; intake of 300 mg/kg/day, rat): two to nine times higher | NCF cell viability ([9]; 25 μM concentration): no affect on NCF cell viability
